Our source for the EC50, IC50 and outcome values is PubChem BioAssay AID179 (DTP/NCI, 2004).

As a reminder, the EC50 is the concentration that produces a half-maximal response. By IC50 is commonly meant the midpoint of a concentration-inhibition curve. Read a high IC50 as lower potency.

Calls of active or inactive are those of the source.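 Rule for the calls: active = compounds giving half or more protection of infected cells from virus-caused growth loss, again on retest; inactive = the rest.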

This assay deals with CEM cells HIV-1 protection, formazan growth assay. Description: NCI AIDS Antiviral Assay. The settings on record: for IC50: measured here: growth of uninfected CEM cells. In a few lines: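 Human CEM cells, uninfected and HIV-1-infected, received five drug concentrations, and growth was read by soluble formazan assay. Compounds giving at least 50% protection were retested; reproducible 100% protection defined confirmed active.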

Take `Cc1cc(C)c2c(c1)CC(C)(C)C(=O)OC2=O`: the EC50 was greater than 112 µM and the IC50 is greater than 112 µM.
For the molecule `N#Cc1c(N)sc(=S)c2c1CCCC2`, the EC50 was greater than 22.4 µM and the IC50 is greater than 22.4 µM.
Take `Cc1ccc(C(=O)N(C(C)C)C(C)C)cc1N=NN(C)C`: the EC50 was greater than 123 µM and the IC50 came out at 97.7 µM.
On the same counts, the results for `O=C(O)CN1CCN(CC(=O)O)CCN(CC(=O)O)CCN(CC(=O)O)CC1` are greater than 200 µM and greater than 200 µM.
With `CN(C)CCNC(=O)c1cccc2c(Nc3ccc(S(N)(=O)=O)cc3)c3ccccc3nc12`, the result was inactive.
On to `CCOC(=O)NC1CN2CCC1CC2` (stereo not drawn), for which the EC50 was greater than 200 µM and the IC50 is greater than 200 µM.
For the molecule `NC(=O)NCCSC1CCCCC1O` (stereo not drawn), the EC50 is greater than 200 µM and the IC50 is greater than 200 µM.
As to `CCOC(=O)c1[nH]cc(C)c1-c1c[nH]c2ccccc12`, the EC50 was greater than 200 µM and the IC50 came to 24.5 µM.
On the same counts, the results for `CCOC(=O)CC(NC(=O)c1nc[nH]c1[N+](=O)[O-])C(=O)OCC` (stereo not drawn) are greater than 79.4 µM and 39.8 µM.
For `C/C(=N/NC(=S)N(C)C)c1ccccc1O`, the EC50 is greater than 200 µM and the IC50 came to 11.7 µM.
With `COc1cc2c(c(C(C)(C)C)c1)OC1(O)C2=CC(=O)C=C1C(C)(C)C` (stereo not drawn), the EC50 was greater than 20 µM and the IC50 was 0.372 µM.
The corresponding values for `CC(=O)Nc1[nH]n(C)c(=O)c1-c1nnc(C)s1` are greater than 977 µM and 437 µM.
In the case of `O=C1/C(=C/c2ccc(O)cc2)CC/C1=C\c1ccc(O)cc1`, the EC50 is greater than 200 µM and the IC50 came out at 31.6 µM.
For the molecule `O=CNNC(=O)Nc1cccc2ccccc12`, the EC50 was greater than 200 µM and the IC50 was greater than 200 µM.
As to `CCCCC1C(=O)N2C=C(c3ccccc3)c3ccccc3N2C1=O` (stereo not drawn), the EC50 is greater than 100 µM and the half-maximal inhibitory concentration (IC50) came out at 60.3 µM.
The corresponding values for `CCCCCCC(/C=N/O)C(C)(O)CCC` (stereo not drawn) are greater than 112 µM and greater than 112 µM.
In the case of `C=CC[C@]12CC[C@H](O)[C@@]1(C)CCC(=O)/C2=N\N`, the outcome was inactive.
For the molecule `Cc1cc(NS(=O)(=O)c2ccc(Nc3c4ccccc4nc4ccc(C(=O)Nc5ccc(S(N)(=O)=O)cc5)cc34)cc2)no1`, the EC50 was greater than 200 µM and the IC50 was found to be 110 µM.
As for `Clc1ccc(-c2c(C3=NCCN3)nnn2-c2ccccc2)cc1`, the EC50 is greater than 214 µM and the IC50 worked out at 174 µM.
Consider `COc1cc2c(cc1OC)C1(c3ccc(Cl)cc3)ON=C(c3ccccc3)N1CS2` (stereo not drawn), for which the EC50 was greater than 6.17 µM and the IC50 was greater than 6.17 µM.
For `CC1(C)C(=O)C(C)(C)C1=S`, the EC50 was greater than 219 µM and the IC50 is greater than 219 µM.
For `COC(=O)CCC(C)C1CCC2C3CCC4CC5CCC4C3(CO5)C(=O)C(Br)C12C` (stereo not drawn), the EC50 is greater than 10.7 µM and the IC50 is greater than 10.7 µM.
Take `O=C(NN1C(=O)C(Cl)C1c1ccccc1O)c1ccccc1O` (stereo not drawn): the EC50 is greater than 56.2 µM and the IC50 amounted to 8.32 µM.
Consider `CC(C)(C)C(=O)/C=C/c1ccc(Oc2ccccc2)cc1`, for which the EC50 was greater than 25.7 µM and the IC50 was greater than 25.7 µM.
As for `COc1ccc(OC)c(/C=C(\C#N)c2ccc([N+](=O)[O-])cc2)c1`, the EC50 is greater than 200 µM and the IC50 is greater than 200 µM.
As to `CCCCCCCCCCCCCCCC(=O)Nc1ccn(C2CC(OP(=O)(O)OCC3OC(n4cc(C)c(=O)[nH]c4=O)CC3N=[N+]=[N-])C(CO)O2)c(=O)n1` (stereo not drawn), the EC50 was 0.813 µM and the IC50 is greater than 100 µM.
For the molecule `OC(CCN1CCCCCC1)(Cc1ccccc1)c1ccccc1` (stereo not drawn), the EC50 is greater than 200 µM and the IC50 was 81.3 µM.
Take `S=C1NC2=C(CSC/C2=C\c2ccc(Cl)cc2)C(c2ccc(Cl)cc2)N1` (stereo not drawn): the EC50 was greater than 200 µM and the IC50 was 15.8 µM.
On the same counts, the results for `O=S1(=O)OC(c2cc(Cl)c(O)c(Br)c2)(c2cc(Cl)c(O)c(Br)c2)c2ccccc21` are 380 µM and 501 µM.
Consider `Cc1cccc2c(NCCN(C)C)c3cccc(C(=O)NCCN(C)C)c3nc12`, for which the EC50 is greater than 0.2 µM and the IC50 amounted to 0.195 µM.
